From patent US20090111836A1, “Angular Pyranocoumarins, Process for Preparation and Uses Thereof” (CITY UNIVERSITY OF HONG KONG, priority 2007, published 2009)
“And” between values parts separate entries of the source, which are not always exact repeats. Identical values can stand only once.

Columns and labels:
[1] = target: T1, P-gp (Homo sapiens, UniProt P08183); test: Rhodamine-123 efflux assay, HepG2-DR; format: cell-based; design: KB V1, HepG2-DR and K562-DR cell expressed P-gp at high level when compared with parental drug sensitive cells thereof; endogenous in cells; host or cells: HepG2-DR (doxorubicin-maintained multidrug resistant subline of HepG2); settings: 10 μM, 1 hour efflux
T1 sequence (P08183 whole entry): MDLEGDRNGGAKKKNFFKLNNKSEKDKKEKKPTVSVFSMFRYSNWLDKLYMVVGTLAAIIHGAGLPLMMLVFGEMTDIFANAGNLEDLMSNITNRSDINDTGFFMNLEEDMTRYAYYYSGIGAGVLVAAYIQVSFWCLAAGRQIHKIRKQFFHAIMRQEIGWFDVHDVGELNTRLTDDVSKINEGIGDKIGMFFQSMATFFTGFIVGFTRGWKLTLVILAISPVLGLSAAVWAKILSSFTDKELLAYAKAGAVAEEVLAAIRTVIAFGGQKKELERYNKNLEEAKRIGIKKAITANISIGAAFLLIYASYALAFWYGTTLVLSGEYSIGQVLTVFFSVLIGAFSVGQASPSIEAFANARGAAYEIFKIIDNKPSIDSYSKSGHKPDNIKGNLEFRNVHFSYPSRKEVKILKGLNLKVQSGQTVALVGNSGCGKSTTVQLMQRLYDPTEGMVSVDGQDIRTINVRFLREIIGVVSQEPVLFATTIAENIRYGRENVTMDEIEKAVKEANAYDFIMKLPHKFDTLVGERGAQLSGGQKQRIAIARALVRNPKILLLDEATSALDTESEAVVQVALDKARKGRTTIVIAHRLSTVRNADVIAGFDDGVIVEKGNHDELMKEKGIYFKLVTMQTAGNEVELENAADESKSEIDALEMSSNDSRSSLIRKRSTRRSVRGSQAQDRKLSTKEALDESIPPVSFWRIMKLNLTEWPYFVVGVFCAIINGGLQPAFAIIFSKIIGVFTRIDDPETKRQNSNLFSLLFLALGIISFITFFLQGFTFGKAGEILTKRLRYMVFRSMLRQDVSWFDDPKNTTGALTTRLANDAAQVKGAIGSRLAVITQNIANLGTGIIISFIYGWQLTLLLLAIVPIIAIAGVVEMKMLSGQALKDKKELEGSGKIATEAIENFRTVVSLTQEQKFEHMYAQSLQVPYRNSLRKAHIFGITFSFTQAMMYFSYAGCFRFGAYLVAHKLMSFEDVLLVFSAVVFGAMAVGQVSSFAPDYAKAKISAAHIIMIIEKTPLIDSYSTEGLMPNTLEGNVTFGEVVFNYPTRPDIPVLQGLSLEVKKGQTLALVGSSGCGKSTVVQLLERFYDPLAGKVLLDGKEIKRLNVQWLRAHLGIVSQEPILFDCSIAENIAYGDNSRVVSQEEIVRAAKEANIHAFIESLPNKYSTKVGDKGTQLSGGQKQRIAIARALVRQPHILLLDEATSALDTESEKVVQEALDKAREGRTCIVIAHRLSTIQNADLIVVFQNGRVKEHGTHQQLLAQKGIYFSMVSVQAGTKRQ
Method: (§1) (Fs: cellular fluorescence intensity of Rb-123 in the presence of testing drugs; Fo: cellular fluorescence intensity of Rh-123 in the absence of any P-gp modulator).
(§2) 1.4 Test for Rh-123 transport: HepG2-DR cells or K562-DR cells (1×10^6 cells in 1 mL complete growth medium) were incubated with 5 μg/mL, Rh-123 at 37° C. for 1 hour to allow Rh-123 uptake. […] Cellular fluorescence of Rh-123 was determined by flow cytometry to analyze the inhibitive effect of test compounds on drug expulsion from cells.

[2] = system: HepG2-DR cells; test: Reversal of multidrug resistance (fold decrease of anticancer drug IC50), HepG2-DR; format: cell-based, human
Method: Cells and cell culture: cell lines used in the experiments are human hepatoma cell line (HepG2), human leukemia cell line (K562), human epidermoid carcinoma cell line (KB-3-1) and their multidrug resistant sublines HepG2-DR, K562-DR. and KB V1. The culture conditions for all cells are following: at 37° C. and 5% CO2), KB-3-1 and KBV1 were cultured in MEM medium containing 10% fetal bovine serum and 100 U/mL antibiotics; K562, K562-DR, HepG2, HepG2-DR were cultured in RPMI-1640 medium containing 10% fetal bovine serum and 100 U/mL, antibiotics. For maintaining the phenotypic characteristics of multidrug resistance, 1.2 μM and 0.1 μM doxorubicin were respectively added into the mediums of HepG2-DR and K562-DR; 200 ng/mL vinblastine was added into the medium of KBV1. Drug resistant cells were grown in drug free medium for at least 7 days before test.
Each growth inhibition experiment must be repeated three times and results are expressed as mean±standard deviation (SD). Solvents and media were included as blank control.
In SRB assay, cells are inoculated at 5000 cells/well in a 96-well microplate and incubated overnight to let cells adhere. Drug treatment lasts for 72 hours and cells are fixed for 1 hour at 4° C. with 50 μl ice-cold 15% trichloroacetic acid and washed with triple-distilled water 5 times. Cellular protein is stained by adding 50 μl of 0.4% SRB in 1% acetic acid for 10 minutes, rinsed with 1% acetic acid 5 times and air-dried. The protein-bound dye is dissolved in 100 μl per well of 10 mM Tris base (pH 10.5). The color intensity of SRB, which positively correlate to cell number in preliminary experiments, is estimated at OD 515 nm.
1. Materials and methods: the same with I.
To evaluate the multidrug resistance reversing ability of (±)-Praeruptorin A derivatives, IC50 values of anticancer drugs in the presence and absence of cis-DMDCK, cis-DMDBK, trans-DMDCK, or trans-DMDBK at certain concentration were determined in HepG2-DR, K562-DR and KB V1 cells. The fold decrease of IC50 value of an anticancer drug in certain cell line achieved by a test compound is calculated (fold decrease=IC50 of an anti-tumor drug alone/IC50 of the anti-tumor drug in combination with the test compound) and is used for evaluating the ability of the test compound to reduce drug resistance. The larger the fold decrease value is, the stronger its ability to reverse drug resistance is. The results were average values of three repetitive tests. Verapamil (P-glycoprotein modulator) is the positive control.

[3] = target: T1, P-gp; test: Rhodamine-123 efflux assay, K562-DR; format: cell-based; design: K562-DR cell expressed P-gp at high level when compared with parental drug sensitive cells thereof; endogenous in cells; settings: 10 μM, 1 hour efflux
Method: as §1, §2

Row | Compound | Increase in cellular Rh-123 fluorescence compared with untreated cells [1] | Reversing parameter: fold decrease of IC50 of Doxorubicin ([2]; 1 μM test compound) | Reversing parameter: fold decrease of IC50 of Puromycin ([2]; 1 μM test compound) | Reversing parameter: fold decrease of IC50 of Vinblastine ([2]; 1 μM test compound) | Reversing parameter: fold decrease of IC50 of Doxorubicin ([2]; 2 μM test compound) | Reversing parameter: fold decrease of IC50 of Puromycin ([2]; 2 μM test compound) | Reversing parameter: fold decrease of IC50 of Vinblastine ([2]; 2 μM test compound) | Reversing parameter: fold decrease of IC50 of Doxorubicin ([2]; 4 μM test compound) | Reversing parameter: fold decrease of IC50 of Puromycin ([2]; 4 μM test compound) | Reversing parameter: fold decrease of IC50 of Vinblastine ([2]; 4 μM test compound) | Reduction of drug resistance to the four anti-tumor drugs ([2]; 4 μM test compound, range over vinblastine, doxorubicin, puromycin, paclitaxel) | Increase in cellular Rh-123 fluorescence compared with untreated cells [3]
1 | COc1ccc(C(=O)O[C@@H]2c3c(ccc4ccc(=O)oc34)OC(C)(C)[C@@H]2OC(=O)c2ccc(OC)c(OC)c2)cc1OC (racemic) [cis-DMDBK, (±)-3′-O,4′-O-bis(3,4-dimethoxybenzoyl)-cis-khellactone] | 400% | 6.2 ± 0.7 fold | 4.6 ± 1.3 fold | 4.8 ± 4.1 fold | 33.5 ± 7.5 fold | 15.4 ± 4.6 fold | 12.4 ± 6.1 fold | 117.1 ± 13.8 fold | 74.6 ± 21.2 fold | 82.1 ± 13.1 fold | 62-117 times | 140%
2 | COc1ccc(/C=C/C(=O)O[C@@H]2c3c(ccc4ccc(=O)oc34)OC(C)(C)[C@@H]2OC(=O)/C=C/c2ccc(OC)c(OC)c2)cc1OC (racemic) [cis-DMDCK, (±)-3′-O,4′-O-bis(3,4-dimethoxycinnamoyl)-cis-khellactone] | 480% | 22 fold and 22.5 ± 9.1 fold | 29 fold and 29.5 ± 13.0 fold | 45 fold and 45.7 ± 10.3 fold | 107 fold and 107.9 ± 51.9 fold | 111 fold and 111.1 ± 38.0 fold | 105 fold and 105.7 ± 21.2 fold | 160 fold and 160.6 ± 12.6 fold | 140 fold and 140.9 ± 65.1 fold | 130 fold and 129.9 ± 35.5 fold | – | 200%
3 | COc1ccc(C(=O)O[C@@H]2[C@@H](OC(=O)c3ccc(OC)c(OC)c3)c3c(ccc4ccc(=O)oc34)OC2(C)C)cc1OC (racemic) [trans-DMDBK, (±)-3′-O,4′-O-bis(3,4-dimethoxybenzoyl)-trans-khellactone] | – | – | – | – | 3.8 ± 1.6 fold | 4.6 ± 1.4 fold | 1.5 ± 0.3 fold | 58.2 ± 17.2 fold | 28.5 ± 0.2 fold | 19.3 ± 10.4 fold | – | –
4 | COc1ccc(/C=C/C(=O)O[C@@H]2[C@@H](OC(=O)/C=C/c3ccc(OC)c(OC)c3)c3c(ccc4ccc(=O)oc34)OC2(C)C)cc1OC (racemic) [trans-DMDCK, (±)-3′-O,4′-O-bis(3,4-dimethoxycinnamoyl)-trans-khellactone] | – | – | – | – | 8.0 ± 0.6 fold | 5.6 ± 0.6 fold | 1.9 ± 0.0 fold | 59.4 ± 18.5 fold | 26.6 ± 6.4 fold | 13.9 ± 5.8 fold | – | –
